Experiment [1] relates to HL-60. Kind of experiment: Antiproliferative activity against human HL60 cells. The experiment is classed as functional, cell-based.
Experiment [2] deals with HL-60. The experiment is described as follows: Proapoptotic effect in human HL60 cells at 10 uM. Type of experiment: functional, cell-based.
Experiment [3] concerns HL-60. The experiment is described as follows: Cell cycle arrest in human HL60 cells assessed as increase in preG1 fraction relative to control. The experiment is classed as functional.
Experiment [4] concerns HL-60. Kind of experiment: Proapoptotic effect in human HL60 cells at 500 uM. Type of experiment: functional, cell-based.

The structures appear in SMILES notation. pIC50: −log10 of the molar value. Active and inactive are the calls of the source. The calls are words filed in the database; no cut-off is given here. Bounds are passed on as bounds.

What is called pIC50 is −log10 of the IC50, conventionally taken in molar units. A low value points to a high IC50.

`c1ccc(CNc2ncnc3[nH]cnc23)cc1` [6-BENZYLAMINOPURINE]: in the experiment on HL-60 [1], the pIC50 was < 4.00.

The compound `c1coc(CNc2ncnc3[nH]cnc23)c1` [KINETIN] gave a pIC50 with HL-60 [1] of 4.66.

Take `c1ccc(CNc2ccnc3[nH]ccc23)cc1`: the pIC50 in the experiment on HL-60 [1] is 4.90. Also, in the experiment on HL-60 [2], the outcome was Active.

As to `c1ccc(Nc2ccnc3[nH]ccc23)cc1`, the Activity with HL-60 [3] came out at 39.9%. Further, the pIC50 with HL-60 [1] was 4.63. Moreover, in the experiment with HL-60 [2], the outcome was Active.

With `Cn1ccc2c(NCCc3ccccc3)ccnc21`, the pIC50 in the experiment with HL-60 [1] was < 4.00. Further, the outcome with HL-60 [4] was Active.

`c1ccc(N2CCN(c3ccnc4[nH]ccc34)CC2)cc1`: the pIC50 with HL-60 [1] is 4.63. Further, the outcome in the experiment with HL-60 [2] was Active.

As to `Cn1ccc2c(N3CCN(c4ccccc4)CC3)ccnc21`, in the experiment on HL-60 [1], the negative logarithm of the IC50 (pIC50) is < 4.00. In addition, the outcome with HL-60 [4] was Active.

With `Cn1ccc2c(NCc3ccccc3)ccnc21`, the negative-log IC50 (pIC50) with HL-60 [1] was < 4.00. In addition, the result with HL-60 [4] was Active.

Turning to `Cn1ccc2c(Nc3ccccc3)ccnc21`, the pIC50 in the experiment with HL-60 [1] was < 4.00. The outcome in the experiment with HL-60 [4] was Active.

In turn, `c1ccc(CCNc2ccnc3[nH]ccc23)cc1` had a negative-log IC50 (pIC50) with HL-60 [1] of 4.63. The result in the experiment with HL-60 [2] was Active.

The values above are taken from ChEMBL document CHEMBL1144616, “Synthesis and biological evaluation of 7-azaindole derivatives, synthetic cytokinin analogues” (Bioorg Med Chem Lett, 2007).
